Measurements taken from ChEMBL document CHEMBL5625160, “Development of a next-generation endogenous OCT4 inducer and its anti-aging effect in vivo” (Eur J Med Chem, 2023).
Values belong to the molecule of their own block, whether it stands above or below them. Active and inactive are the calls of the source. No cut-off for these calls is given here.

Columns and labels:
[1] = biological target: POU domain, class 5, transcription factor 1 (Homo sapiens) (UniProt Q01860); experiment: Induction of OCT4 (unknown origin) expressed in HEK cells assessed as increase in luminescence signal measured after 24 hrs by luciferase reporter assay; assay type: cell-based
[2] = biological target: POU domain, class 5, transcription factor 1 (Homo sapiens) (UniProt Q01860); experiment: Induction of OCT4 (unknown origin) expressed in human NCCIT reporter cells assessed as increase in luminescence signal measured after 24 hrs by luciferase reporter assay; assay type: cell-based
[3] = biological target: Homeobox protein NANOG (Homo sapiens) (UniProt Q9H9S0); experiment: Induction of NANOG (unknown origin) expressed in human NCCIT reporter cells assessed as increase in luminescence signal measured after 24 hrs by luciferase reporter assay; assay type: cell-based
NCCIT [4] = experiment: Cytotoxicity against human NCCIT cells assessed as inhibition of cell viability measured after 48 hrs by MTT assay; assay type: functional, cell-based
[5] = Cytotoxicity against human HFF cells assessed as inhibition of cell viability measured after 48 hrs by MTT assay; assay type: toxicity, cell-based
Fibroblast [6] = experiment: Reprogramming activity in human Fibroblast cells harbouring LTR7-GFP assessed as induction of iPSCs from somatic cells by measuring TRA-160 positive colonies at 5 uM measured after 7 days in presence of SOX2/KLF4/L-MYC/LIN28 (SKML); assay type: functional, cell-based; conditions: time 7.0 day
Drosophila [7] = experiment: Anti-aging activity in Drosophila assessed as extension of life span; assay type: functional, organism-based
Drosophila [8] = experiment: Anti-aging activity in Drosophila; assay type: functional, organism-based
Albumin = Albumin (Homo sapiens, UniProt P02768); experiment: Protein binding in serum albumin (unknown origin); assay type: ADME; conditions: read-out: PB (converted)
[9] = biological target: Splicing factor 3B subunit 1 (Homo sapiens) (UniProt O75533); experiment: Thermal stabilization of SF3B1 (unknown origin) assessed as increase in denaturation temperature by thermal shift assay (reference value: 58.5+/-2.05 degreeC)
[10] = Membrane permeability of the compound; assay type: ADME
Caenorhabditis elegans [11] = experiment: Anti-aging activity in wild type Caenorhabditis elegans N2 assessed as increase in survival rate measured after 48 hrs under oxidative stress; assay type: functional, organism-based
NCCIT [12] = experiment: Upregulation of SOX2 level in human NCCIT cells by fluorescence-activated cell sorter analysis; assay type: functional, cell-based
[13] = biological target: POU domain, class 5, transcription factor 1 (Homo sapiens) (UniProt Q01860); experiment: Induction of OCT4 in human HFF cells measured after 8 hrs; assay type: cell-based; conditions: filed as activator
Drosophila [14] = experiment: Anti-aging activity in Drosophila assessed as increase in life span at late adulthood at 20 uM measured upto 60 days; assay type: functional, organism-based; conditions: time <= 60.0 day
Caenorhabditis elegans [15] = experiment: Anti-aging activity in Caenorhabditis elegans […] assessed as induction of daf-16 nuclear translocation measured after 24 hrs; assay type: functional, organism-based
NCCIT [16] = experiment: Upregulation of SOX2 expression in human NCCIT cells at 5 to 10 uM measured after 2 days by qRT-PCR analysis; assay type: functional, cell-based; conditions: dose 5-10 µM, time 2.0 day
NCCIT [17] = experiment: Upregulation of NANOG level in human NCCIT cells by fluorescence-activated cell sorter analysis; assay type: functional, cell-based
[18] = Upregulation of NANOG expression in human NCCIT cells assessed as fold increase at 5 to 10 uM measured after 2 days by qRT-PCR analysis; assay type: functional; conditions: dose 5-10 µM; time 2 day
HFF [19] = experiment: Effect on OCT expression in human HFF cells; assay type: functional, cell-based
Drosophila [20] = experiment: Anti-aging activity in Drosophila assessed as increase in life span at 20 uM measured upto 60 days relative to control; assay type: functional; conditions: 1440 h, time <= 60 day
NCCIT [21] = experiment: Upregulation of OCT4 level in human NCCIT cells by fluorescence-activated cell sorter analysis; assay type: functional, cell-based
Fibroblast [22] = experiment: Upregulation of OCT4 level in human Fibroblast cells measured after 5 days by immunoblot analysis; assay type: functional, cell-based; conditions: dose 5-50 µM, time 5.0 day
HFF [23] = experiment: Effect on SOX2 expression in human HFF cells; assay type: functional, cell-based
Drosophila [24] = experiment: Anti-aging activity in Drosophila assessed as increase in life span at early adulthood at 20 uM measured upto 60 days relative to control; assay type: functional; conditions: 1440 h, time <= 60 day
[25] = Upregulation of OCT4 expression in human NCCIT cells assessed as fold increase at 5 to 10 uM measured after 2 days by qRT-PCR analysis; assay type: functional; conditions: dose 5-10 µM; time 2 day
NCCIT [26] = experiment: Upregulation of STAT3 expression in human NCCIT cells at 5 to 10 uM measured after 2 days by qRT-PCR analysis; assay type: functional, cell-based; conditions: dose 5-10 µM, time 2.0 day
NCCIT [27] = experiment: Upregulation of E-cadherin expression in human NCCIT cells at 5 to 10 uM measured after 2 days by qRT-PCR analysis; assay type: functional, cell-based; conditions: dose 5-10 µM, time 2.0 day
NCCIT [28] = experiment: Upregulation of OCT4 level in human NCCIT cells measured after 5 days by immunoblot analysis; assay type: functional, cell-based; conditions: dose 1-50 µM, time 5.0 day
Caenorhabditis elegans [29] = experiment: Anti-aging activity in wild type Caenorhabditis elegans N2 assessed as increase in life extension at 0.5 uM measured upto 40 days; assay type: functional, organism-based; conditions: time <= 40.0 day
NCCIT [30] = experiment: Upregulation of REX1 expression in human NCCIT cells at 5 to 10 uM measured after 2 days by qRT-PCR analysis; assay type: functional, cell-based; conditions: dose 5-10 µM, time 2.0 day
Fibroblast [31] = experiment: Reduction in OCT4 expression in SF3B1 siRNA human Fibroblast cells harbouring LTR7-EGFP; assay type: functional, cell-based
HFF [32] = experiment: Effect on NANOG expression in human HFF cells; assay type: functional, cell-based
NCCIT [33] = experiment: Upregulation of E-cadherin level in human NCCIT cells by fluorescence-activated cell sorter analysis; assay type: functional, cell-based

Homeobox protein NANOG (Homo sapiens), sequence (Q9H9S0 whole entry): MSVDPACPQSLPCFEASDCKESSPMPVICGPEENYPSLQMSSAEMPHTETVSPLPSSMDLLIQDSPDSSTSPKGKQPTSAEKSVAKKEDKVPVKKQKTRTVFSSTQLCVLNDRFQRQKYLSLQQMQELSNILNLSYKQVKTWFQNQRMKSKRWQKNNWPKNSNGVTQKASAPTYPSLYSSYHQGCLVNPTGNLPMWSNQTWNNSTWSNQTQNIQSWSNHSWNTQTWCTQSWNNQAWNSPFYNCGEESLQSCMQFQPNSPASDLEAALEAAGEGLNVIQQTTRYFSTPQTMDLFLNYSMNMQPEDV
POU domain, class 5, transcription factor 1 (Homo sapiens), sequence (Q01860 whole entry, the tested form may be a part): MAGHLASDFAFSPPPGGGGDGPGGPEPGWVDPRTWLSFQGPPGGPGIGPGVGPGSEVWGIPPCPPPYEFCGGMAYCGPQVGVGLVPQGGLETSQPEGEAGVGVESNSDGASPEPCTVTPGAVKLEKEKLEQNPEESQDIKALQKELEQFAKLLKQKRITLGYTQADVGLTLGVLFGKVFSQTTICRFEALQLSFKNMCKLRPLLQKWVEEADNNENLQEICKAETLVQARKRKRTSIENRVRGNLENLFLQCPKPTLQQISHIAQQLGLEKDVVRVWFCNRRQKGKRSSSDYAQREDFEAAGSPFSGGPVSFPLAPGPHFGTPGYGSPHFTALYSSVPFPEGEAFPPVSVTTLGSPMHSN
Splicing factor 3B subunit 1 (Homo sapiens), sequence (O75533 whole entry): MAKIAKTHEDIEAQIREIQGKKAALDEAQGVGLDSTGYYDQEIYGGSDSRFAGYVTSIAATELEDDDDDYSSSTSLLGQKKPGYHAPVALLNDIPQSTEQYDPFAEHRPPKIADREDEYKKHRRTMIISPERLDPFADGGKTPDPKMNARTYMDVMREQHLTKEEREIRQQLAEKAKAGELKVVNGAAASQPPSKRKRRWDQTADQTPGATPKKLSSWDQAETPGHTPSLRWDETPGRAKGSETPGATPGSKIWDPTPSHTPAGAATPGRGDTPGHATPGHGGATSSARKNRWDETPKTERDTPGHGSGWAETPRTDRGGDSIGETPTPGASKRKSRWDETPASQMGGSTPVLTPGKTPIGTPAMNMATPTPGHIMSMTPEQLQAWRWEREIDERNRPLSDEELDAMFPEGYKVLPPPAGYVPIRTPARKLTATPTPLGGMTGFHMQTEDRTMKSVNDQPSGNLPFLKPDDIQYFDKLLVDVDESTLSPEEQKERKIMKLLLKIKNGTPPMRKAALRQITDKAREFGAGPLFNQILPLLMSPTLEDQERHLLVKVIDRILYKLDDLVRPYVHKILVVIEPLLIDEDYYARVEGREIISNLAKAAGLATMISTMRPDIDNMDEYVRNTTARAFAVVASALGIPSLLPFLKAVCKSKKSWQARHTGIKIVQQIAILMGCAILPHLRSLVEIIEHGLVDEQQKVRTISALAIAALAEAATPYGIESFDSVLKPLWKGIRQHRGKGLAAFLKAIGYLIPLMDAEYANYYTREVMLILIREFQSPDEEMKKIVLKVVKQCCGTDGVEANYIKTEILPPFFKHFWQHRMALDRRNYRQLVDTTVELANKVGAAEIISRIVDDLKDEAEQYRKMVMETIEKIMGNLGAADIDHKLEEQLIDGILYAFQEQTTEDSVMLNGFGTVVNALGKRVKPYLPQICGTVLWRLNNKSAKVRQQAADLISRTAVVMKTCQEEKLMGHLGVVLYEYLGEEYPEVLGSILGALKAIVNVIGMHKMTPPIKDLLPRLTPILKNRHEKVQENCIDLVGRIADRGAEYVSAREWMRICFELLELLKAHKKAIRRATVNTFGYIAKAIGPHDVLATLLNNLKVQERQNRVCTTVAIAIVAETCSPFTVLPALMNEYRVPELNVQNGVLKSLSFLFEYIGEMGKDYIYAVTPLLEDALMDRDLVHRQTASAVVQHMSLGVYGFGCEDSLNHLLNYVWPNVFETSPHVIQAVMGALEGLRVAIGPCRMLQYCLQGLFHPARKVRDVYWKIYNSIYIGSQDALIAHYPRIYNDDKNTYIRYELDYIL
Albumin, sequence (P02768 whole entry): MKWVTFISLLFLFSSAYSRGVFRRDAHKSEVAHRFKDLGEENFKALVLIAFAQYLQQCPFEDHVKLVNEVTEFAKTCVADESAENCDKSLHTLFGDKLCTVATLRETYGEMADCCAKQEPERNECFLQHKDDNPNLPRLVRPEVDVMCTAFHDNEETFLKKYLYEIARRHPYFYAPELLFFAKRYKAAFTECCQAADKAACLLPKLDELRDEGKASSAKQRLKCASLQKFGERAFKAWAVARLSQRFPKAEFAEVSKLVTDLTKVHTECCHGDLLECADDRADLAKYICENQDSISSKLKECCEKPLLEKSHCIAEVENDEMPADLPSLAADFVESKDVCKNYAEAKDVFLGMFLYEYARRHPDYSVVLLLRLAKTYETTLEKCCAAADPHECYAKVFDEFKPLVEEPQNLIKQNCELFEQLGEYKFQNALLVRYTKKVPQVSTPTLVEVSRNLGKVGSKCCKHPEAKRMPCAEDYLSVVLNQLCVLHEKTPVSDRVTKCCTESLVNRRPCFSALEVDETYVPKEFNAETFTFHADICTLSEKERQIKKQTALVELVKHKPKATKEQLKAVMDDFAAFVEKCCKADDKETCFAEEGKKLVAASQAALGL

Activity [1]: inactive
Activity [2]: inactive
Activity [3]: inactive
SMILES: CCOC(=O)c1csc(Nc2cc(OC)ccc2OC)n1
IC50 (NCCIT [4]): > 20 µM
IC50 at 48 h [5]: > 20 µM

SMILES: Cc1cccc(Nc2nc(C(C)(C)C)cs2)c1
IC50 (NCCIT [4]): 5.96 µM
IC50 at 48 h [5]: 11.6 µM

Activity ([1]; filed as activator): Active
Activity [2]: inactive
Activity [3]: inactive
SMILES: CCOC(=O)c1csc(Nc2ccc([N+](=O)[O-])cc2)n1
IC50 (NCCIT [4]): > 20 µM
IC50 at 48 h [5]: > 20 µM

Activity [1]: inactive
Activity [2]: inactive
Activity [3]: inactive
SMILES: CCOC(=O)c1csc(Nc2ccc(C)cc2)n1
IC50 (NCCIT [4]): > 20 µM
IC50 at 48 h [5]: > 20 µM

SMILES: Cc1ccc(Nc2nc(C(C)(C)C)cs2)c(C)c1
IC50 (NCCIT [4]): > 20 µM
IC50 at 48 h [5]: > 20 µM

Activity ([1]; filed as activator): Active
Activity [2]: inactive
Activity [3]: inactive
SMILES: CCOC(=O)c1csc(Nc2ccc(C)cc2Br)n1
Activity (Fibroblast [6]): Active
IC50 (NCCIT [4]): > 20 µM
IC50 at 48 h [5]: > 20 µM

SMILES: CC(C)(C)c1csc(Nc2ccc(Cl)cc2)n1
Activity (Fibroblast [6]): inactive
IC50 (NCCIT [4]): 19.7 µM
IC50 at 48 h [5]: > 20 µM

SMILES: C=C[C@@]1(C)CC(=O)[C@]2(O)[C@@]3(C)[C@@H](O)CCC(C)(C)[C@@H]3[C@H](O)[C@H](OC(C)=O)[C@@]2(C)O1
Activity (Drosophila [7]): inactive

SMILES: Cc1ccc(Nc2nc(C(C)(C)C)cs2)cc1
IC50 (NCCIT [4]): > 20 µM
IC50 at 48 h [5]: > 20 µM

SMILES: Clc1ccc(Nc2nc(-c3ccc4ccccc4c3)cs2)cc1
IC50 (NCCIT [4]): > 20 µM
IC50 at 48 h [5]: > 20 µM

Activity [1]: inactive
Activity [2]: inactive
Activity [3]: inactive
SMILES: CCOC(=O)c1csc(Nc2ccc(O)cc2)n1
IC50 (NCCIT [4]): > 20 µM
IC50 at 48 h [5]: > 20 µM

fraction unbound (Albumin): 0.1
Activity [1]: inactive
T [9]: 64.7 °C
Activity [2]: inactive
permeability [10]: 70%
Activity [3]: inactive
SMILES: CCOC(=O)c1csc(Nc2ccc(Cl)cc2)n1
Activity (Drosophila [8]): inactive
Activity (Fibroblast [6]): Active

SMILES: Cc1ccccc1Nc1nc(C(C)(C)C)cs1
IC50 (NCCIT [4]): 9.38 µM
IC50 at 48 h [5]: > 20 µM

Activity [1]: inactive
Activity [2]: inactive
Activity [3]: inactive
SMILES: CCOC(=O)c1csc(Nc2cc(C(F)(F)F)cc(C(F)(F)F)c2)n1
IC50 (NCCIT [4]): > 20 µM
IC50 at 48 h [5]: > 20 µM

SMILES: CC(C)(C)c1csc(Nc2ccccc2)n1
IC50 (NCCIT [4]): > 20 µM
IC50 at 48 h [5]: > 20 µM

Activity ([1]; filed as activator): Active
Activity [2]: inactive
Activity [3]: inactive
SMILES: CCOC(=O)c1csc(Nc2ccc(Br)cc2C)n1
IC50 (NCCIT [4]): > 20 µM
IC50 at 48 h [5]: > 20 µM

Activity [1]: inactive
Activity [2]: inactive
Activity [3]: inactive
SMILES: CCOC(=O)c1csc(Nc2ccc(OC)cc2OC)n1
IC50 (NCCIT [4]): > 20 µM
IC50 at 48 h [5]: > 20 µM

Activity [1]: inactive
Activity [2]: inactive
Activity [3]: inactive
SMILES: CCOC(=O)c1csc(Nc2ccc(C#N)cc2)n1
IC50 (NCCIT [4]): > 20 µM
IC50 at 48 h [5]: > 20 µM

SMILES: Clc1ccc(Nc2nc(-c3ccccc3)cs2)cc1
IC50 (NCCIT [4]): > 20 µM
IC50 at 48 h [5]: > 20 µM

SMILES: Cc1ccc(-c2cn3cc(C)ccc3n2)cc1
Activity (Fibroblast [6]): Active

Activity [1]: inactive
Activity [2]: inactive
Activity [3]: inactive
SMILES: CCOC(=O)c1csc(Nc2ccc(OC)cc2)n1
IC50 (NCCIT [4]): > 20 µM
IC50 at 48 h [5]: > 20 µM

Activity [1]: inactive
Activity [2]: inactive
Activity [3]: inactive
SMILES: CCOC(=O)c1csc(Nc2ccc(Cl)cc2OC)n1
IC50 (NCCIT [4]): > 20 µM
IC50 at 48 h [5]: > 20 µM

SMILES: Cc1cccc(Nc2nc(C(C)(C)C)cs2)c1C
Activity (Caenorhabditis elegans [11]): Active
Activity (NCCIT [12]): Active
Activity [13]: Active
ILS (Drosophila [14]): inactive
Activity (Caenorhabditis elegans [15]): Active
Activity (NCCIT [16]): Active
Activity (NCCIT [17]): Active
fold change (FC) [18]: 30
Activity (HFF [19]): Active
ILS at 20 µM (Drosophila [20]): 5%
Activity (NCCIT [21]): Active
Activity (Fibroblast [22]): Dose-Dependent Effect
Activity (HFF [23]): Active
ILS at 20 µM (Drosophila [24]): 10%
fold change (FC) [25]: 3
Activity ([1]; filed as activator): Active
T [9]: 64.9 °C
Activity (NCCIT [26]): Active
Activity (NCCIT [27]): Active
Activity (NCCIT [28]): Dose-Dependent Effect
Activity (Fibroblast [6]): Active
Activity ([2]; filed as activator): Active
Activity ([3]; filed as activator): Active
Activity (Caenorhabditis elegans [29]): Active
Activity (NCCIT [30]): Active
IC50 (NCCIT [4]): 10.9 µM
IC50 at 48 h [5]: > 20 µM
Activity (Fibroblast [31]): Active
Activity (HFF [32]): Active
Activity (NCCIT [33]): Active

Activity ([1]; filed as activator): Active
Activity [2]: inactive
Activity [3]: inactive
SMILES: CCOC(=O)c1csc(Nc2ccc(F)cc2F)n1
IC50 (NCCIT [4]): > 20 µM
IC50 at 48 h [5]: > 20 µM

Activity ([1]; filed as activator): Active
Activity [2]: inactive
Activity [3]: inactive
SMILES: CCOC(=O)c1csc(Nc2cc(F)ccc2F)n1
IC50 (NCCIT [4]): > 20 µM
IC50 at 48 h [5]: > 20 µM

Activity ([1]; filed as activator): Active
Activity ([2]; filed as activator): Active
Activity ([3]; filed as activator): Active
SMILES: CCOC(=O)c1csc(Nc2ccc(C(=O)O)cc2)n1
Activity (Fibroblast [6]): Active
IC50 (NCCIT [4]): > 20 µM
IC50 at 48 h [5]: > 20 µM
